# Assay results published in patent publication US10745395B2, “Compounds for their use as drugs for the treatment and/or the prevention of infection(s) caused by biofilm-forming bacteria” (CENTRE NATIONAL DE LA RECHERCHE SCIENTIFIQUE, priority 2014, dated 2020).
# Key:
# Type in all cases: cell-based, Pseudomonas aeruginosa
# [1] = test system: P. aeruginosa strain PAR 20 biofilm; assay: Reduction of biofilm growth (percent vs culture control)
# From the text: FIG. 4B represents the effect of the tested compounds (1, 2, 3 and 4) on exopolysaccharide biosynthesis in the early stages and mature P. aeruginosa biofilm formation, strain PAR 20. The abscissa represents the time (in hours) in order to differentiate early biofilm and mature biofilm, and the ordinate represents the percentage of the biofilm reduction.
# (§1) Early biofilm model: formation of early biofilm under influence of the tested substances was observed by filling wells of a 96-well plate with 20 μl of P. aeruginosa suspension and 180 μl of TSB, as described above. Tested iminosugars (compounds 1, 2, 3 and 4) were added immediately after setting-up the bacteria at a final concentration of 0.9 mM. Then, the plate was gently mixed and incubated for 48 hours at 37° C.
# (§2) Mature biofilm model: the tested substances were added 48 hours after adherence of bacteria to the wells in a 96-well plate. The growth conditions of P. aeruginosa were exactly the same, as described above for the early biofilm model.
# (§3) The effect of the tested compounds (1, 2, 3 and 4) on the reduction of biofilm growth has also been studied on the three P. aeruginosa strains PAR 5, PAR 20, PAR 50.
# (§4) (Percent decrease in biofilm thickness was obtained as a mean value from 3 consecutive measurements of the Congo Red stained biofilm using spectrophotometer after addition of the tested iminosugars in comparison to control regarded as 100%).
# [2] = test system: P. aeruginosa strain PAR 50 biofilm; assay: Mature biofilm model, Congo red staining; settings: for absorbance (Congo red, biofilm development): mature biofilm, compound added 48 h after induction of biofilm
# Procedure: (§5) Biofilm quantity was determined using Congo red dye according to a modified procedure described by Allison et al. (Allison G C, Sutherland I W. A staining technique for bacteria and its correlation to extracellular carbohydrate production. J Microbiol Meth 2, 93-99 (1984)).
# (§6) Briefly, at different time points (0, 6, 18, 24, 48 and 72 hours), the culture medium was gently removed from wells by using the pipette and immediately 200 μl of 0.1% Congo red solution was added. The plates were left for 30 minutes at room temperature and then 10 minutes before the end of staining, the plate was centrifuged for 10 minutes at 2000 rpm and then washed twice with buffered saline to remove unbound dye. Absorbance was measured at λ=492 nm wavelength using spectrophotometer (Awarness Technology Inc., Palm City, Fla., USA). All measurements were performed in triplicates and mean values±SD are given.
# as §2
# (§7) After the addition of iminosugars (compounds 1, 2, 3 and 4), the biofilm formation and the number of viable bacteria were checked in the following time intervals: 48, 48.5, 56, 72, 96 hours.
# [3] = test system: P. aeruginosa strain PAR 5 biofilm; assay: Mature biofilm model, Congo red staining; settings: for absorbance (Congo red, biofilm development): mature biofilm, compound added 48 h after induction of biofilm
# Procedure: as §5, §6, §2, §7
# [4] = test system: P. aeruginosa strain PAR 20 biofilm; assay: Mature biofilm model, Congo red staining; settings: for absorbance (Congo red, biofilm development): mature biofilm, compound added 48 h after induction of biofilm
# Procedure: as §5, §6, §2, §7
# [5] = test system: P. aeruginosa strain PAR 50 biofilm; assay: Early biofilm model, Congo red staining; settings: for absorbance (Congo red, biofilm formation): early biofilm, 0.9 mM, 492 nm
# Procedure: (§8) P. aeruginosa biofilm was set-up in sterile plastic 96-well plates with adherent surface (Greiner Bio-One, USA).
# (§9) Twenty microliter quantities of the bacterial stock suspensions, prepared as described above, were added to each well followed with 180 μl of sterile TSB. Final concentration of the bacteria was 1×10^8 CFU/ml.
# (§10) The plates were centrifuged for 10 minutes at 2000 rpm to sediment bacteria on the bottom of each well and then incubated for 72 hours (37° C., aerobic conditions).
# as §5, §6, §1
# (§11) Biofilm formation and the number of viable bacteria were checked in parallel in the following time intervals: 0, 0.5, 8, 24, 48 hours, in accordance with the procedure described above. Biofilm thickness was estimated by staining it with Cango Red and measuring optical density while number of viable bacteria was performed using the standard viable count method. (Allison G C, Sutherland I W. A staining technique for bacteria and its correlation to extracellular carbohydrate production. J Microbiol Meth 2, 93-99 (1984)).
# (§12) P. aeruginosa suspension cultures in TSB broth alone were used as a control.
# [6] = test system: P. aeruginosa strain PAR 5 biofilm; assay: Early biofilm model, Congo red staining; settings: for absorbance (Congo red, biofilm formation): 0.9 mM, 492 nm
# Procedure: as §8, §9, §10, §5, §6, §1, §11, §12
# [7] = test system: P. aeruginosa strain PAR 20 biofilm; assay: Early biofilm model, Congo red staining; settings: for absorbance (Congo red, biofilm formation): early biofilm, 0.9 mM, 492 nm
# Procedure: as §8, §9, §10, §5, §6, §1, §11, §12
# [8] = test system: P. aeruginosa strain PAR 20; assay: Number of viable bacteria in early and mature biofilm (viable count)
# Procedure: as §11, §7
# (§13) Numbers of viable bacteria contained in the early and mature biofilm were estimated on separate plates with wells filled with tested P. aeruginosa strains as described above (PAR 5, PAR 20, PAR 50).
# (§14) At the same time intervals, biofilm content in each well was removed and mixed by multiple pippeting and transferred to sterile tubes. Then decimal dilutions of the bacterial suspension were made in TSB broth, plated on McConkey Agar (Oxoid), and incubated at 37° C. for 24 hours.
# (§15) Numbers of colonies grown on platter were counted and total numbers of the viable bacteria calculated as colony forming units (CFU) per ml.
# (§16) The results depict logs of CFU/ml for three P. aeruginosa strains: PAR 5, PAR 20 and PAR 50 measured at different time intervals (0 hours, 8 hours, 24 hours, 48 hours, 56 hours, 72 hours and 96 hours). The detection limit is 100 CFU/ml.
# [9] = test system: P. aeruginosa strain PAR 5; assay: as above
# Procedure: as §11, §7, §13, §14, §15, §16
# [10] = test system: P. aeruginosa strain PAR 50; assay: as above
# Procedure: as §11, §7, §13, §14, §15, §16
# [11] = test system: P. aeruginosa strain PAR 5 biofilm; assay: Reduction of biofilm growth (percent vs culture control)
# From the text: FIG. 4A represents the effect of the tested compounds (1, 2, 3 and 4) on exopolysaccharide biosynthesis in the early stages and mature P. aeruginosa biofilm formation, strain PAR 5. The abscissa represents the time (in hours) in order to differentiate early biofilm and mature biofilm, and the ordinate represents the percentage of the biofilm reduction.
# as §1, §2, §3, §4
# [12] = test system: P. aeruginosa strain PAR 50 biofilm; assay: as above
# From the text: FIG. 4C represents the effect of the tested compounds (1, 2, 3 and 4) on exopolysaccharide biosynthesis in the early stages and mature P. aeruginosa biofilm formation, strain PAR 50. The abscissa represents the time (in hours) in order to differentiate early biofilm and mature biofilm, and the ordinate represents the percentage of the biofilm reduction.
# as §1, §2, §3, §4
# [13] = in comparison with culture control
structure (smiles),measurement,setting,value
"COc1ccc(C[C@@H]2CCC[C@@H]3[C@H](O)[C@@H](O)[C@H](CO)N23)cc1 [Compound 3, (1S,2S,3S,5S,9R)-1,2-dihydroxy-3-hydroxymethyl-5-p-methoxybenzylindolizidine]",reduction of biofilm growth,[1]; 8 hours of incubation,about 50%
same,reduction of biofilm growth,[1]; 24 hours of incubation,about 60%
same,reduction of biofilm growth,[1]; 48 hours of incubation,about 0%
same,reduction of biofilm growth,[1]; 72 hours of incubation,about 20%
same,effect on biofilm growth,[1]; notably an early biofilm,can reduce the biofilm growth
same,influence on mature biofilm formation,[2],weak influence
same,"absorbance (Congo red, biofilm development)",[2]; 48 hours,about 1.25 a.u.
same,"absorbance (Congo red, biofilm development)",[2]; 56 hours,about 1.0 a.u.
same,"absorbance (Congo red, biofilm development)",[2]; 72 hours,about 2.0 a.u.
same,"absorbance (Congo red, biofilm development)",[2]; 96 hours,about 2.5 a.u.
same,influence on mature biofilm formation,[3],weak influence
same,"absorbance (Congo red, biofilm development)",[3]; 48 hours,about 0.75 a.u.
same,"absorbance (Congo red, biofilm development)",[3]; 56 hours,about 1.25 a.u.
same,"absorbance (Congo red, biofilm development)",[3]; 72 hours,about 1.25 a.u.
same,"absorbance (Congo red, biofilm development)",[3]; 96 hours,about 1.25 a.u.
same,influence on mature biofilm formation,[4],weak influence
same,"absorbance (Congo red, biofilm development)",[4]; 48 hours,about 0.6 a.u.
same,"absorbance (Congo red, biofilm development)",[4]; 56 hours,about 1.1 a.u.
same,"absorbance (Congo red, biofilm development)",[4]; 72 hours,about 0.75 a.u.
same,"absorbance (Congo red, biofilm development)",[4]; 96 hours,about 1.5 a.u.
same,"absorbance (Congo red, biofilm formation)",[5]; 8 hours,about 0.8 a.u.
same,"absorbance (Congo red, biofilm formation)",[5]; 24 hours,about 0.25 a.u.
same,"absorbance (Congo red, biofilm formation)",[5]; 48 hours,about 0.25 a.u.
same,effect on formation of an early biofilm,[5]; [13],inhibit the formation of an early biofilm
same,"biofilm formation at 8 hours, 24 hours and 48 hours",[6]; early biofilm,no biofilm formation
same,"absorbance (Congo red, biofilm formation)","[6]; early biofilm, 8 hours",about 0.25 a.u.
same,"absorbance (Congo red, biofilm formation)","[6]; early biofilm, 24 hours",about 0.25 a.u.
same,"absorbance (Congo red, biofilm formation)","[6]; early biofilm, 48 hours",about 0.25 a.u.
same,effect on formation of an early biofilm,[6]; [13],inhibit the formation of an early biofilm
same,"absorbance (Congo red, biofilm formation)",[7]; 8 hours,about 0.75 a.u.
same,"absorbance (Congo red, biofilm formation)",[7]; 24 hours,about 0.7 a.u.
same,"absorbance (Congo red, biofilm formation)",[7]; 48 hours,about 0.7 a.u.
same,effect on formation of an early biofilm,[7]; [13],inhibit the formation of an early biofilm
same,number of viable P. aeruginosa,"[8]; early biofilm, 0 h",5 × 10^6 CFU/ml
same,number of viable P. aeruginosa,"[8]; early biofilm, 8 h",3 × 10^7 CFU/ml
same,number of viable P. aeruginosa,"[8]; early biofilm, 24 h",5 × 10^8 CFU/ml
same,number of viable P. aeruginosa,"[8]; early biofilm, 48 h",3 × 10^9 CFU/ml
same,number of viable P. aeruginosa,"[8]; mature biofilm, 56 h",3 × 10^8 CFU/ml
same,number of viable P. aeruginosa,"[8]; mature biofilm, 72 h",7 × 10^7 CFU/ml
same,number of viable P. aeruginosa,"[8]; mature biofilm, 96 h",7 × 10^7 CFU/ml
same,number of viable P. aeruginosa,"[9]; early biofilm, 0 h",6 × 10^6 CFU/ml
same,number of viable P. aeruginosa,"[9]; early biofilm, 8 h",4 × 10^7 CFU/ml
same,number of viable P. aeruginosa,"[9]; early biofilm, 24 h",1 × 10^7 CFU/ml
same,number of viable P. aeruginosa,"[9]; early biofilm, 48 h",2 × 10^6 CFU/ml
same,number of viable P. aeruginosa,"[9]; mature biofilm, 56 h",3 × 10^8 CFU/ml
same,number of viable P. aeruginosa,"[9]; mature biofilm, 72 h",2 × 10^8 CFU/ml
same,number of viable P. aeruginosa,"[9]; mature biofilm, 96 h",1 × 10^9 CFU/ml
same,number of viable P. aeruginosa,"[10]; early biofilm, 0 h",4 × 10^7 CFU/ml
same,number of viable P. aeruginosa,"[10]; early biofilm, 8 h",1 × 10^8 CFU/ml
same,number of viable P. aeruginosa,"[10]; early biofilm, 24 h",6 × 10^8 CFU/ml
same,number of viable P. aeruginosa,"[10]; early biofilm, 48 h",6 × 10^8 CFU/ml
same,number of viable P. aeruginosa,"[10]; mature biofilm, 56 h",4 × 10^8 CFU/ml
same,number of viable P. aeruginosa,"[10]; mature biofilm, 72 h",5 × 10^9 CFU/ml
same,number of viable P. aeruginosa,"[10]; mature biofilm, 96 h",8 × 10^9 CFU/ml
same,reduction of biofilm growth,[11]; 8 hours of incubation,about 90%
same,reduction of biofilm growth,[11]; 24 hours of incubation,about 90%
same,reduction of biofilm growth,[11]; 48 hours of incubation,about 25%
same,reduction of biofilm growth,[11]; 72 hours of incubation,about 10%
same,effect on biofilm growth,[11]; notably an early biofilm,can reduce the biofilm growth
same,reduction of biofilm growth,[12]; 8 hours of incubation,about 45%
same,reduction of biofilm growth,[12]; 24 hours of incubation,about 45%
same,reduction of biofilm growth,[12]; 48 hours of incubation,about 5%
same,reduction of biofilm growth,[12]; 72 hours of incubation,about 20%
same,effect on biofilm growth,[12]; notably an early biofilm,can reduce the biofilm growth
